Test results as given in patent publication US20190194209A1, “PYRAZOLE CARBOXAMIDE COMPOUNDS AND METHODS OF USE” (Genentech, Inc., priority 2014, published 2019).

Key:
[1] = system: CD69 production by B lymphocytes in human whole blood activated with goat F(ab')2 anti-human IgM; assay: CD69 Whole Blood Assay (Example 907); format: cell-based; settings: Lymphocyte; human whole blood, anti-IgM stimulated, 20 hour incubation, CD20 positive cells, FACS; read-out: CD69 Hu Blood FACS (IC70)
Source text: A CD69 Whole Blood Assay can be conducted on Formula I compounds to determine the ability of compounds to inhibit the production of CD69 by B lymphocytes in human whole blood activated by crosslinking surface IgM with goat F(ab′)2 anti-human IgM (Example 907). CD69 is a type II C-type lectin involved in lymphocyte migration and cytokine secretion. CD69 expression represents one of the earliest available indicators of leukocyte activation and its rapid induction occurs through transcriptional activation (Vazquez et al (2009) Jour. of Immunology Published Oct. 19, 2009, doi: 10.4049/jimmunol.0900839). Concentration-dependent inhibition of antigen receptor stimulation by selective Btk inhibitors induces cell surface expression of the lymphocyte activation marker CD69 (Honigberg et al (2010) Proc. Natl. Acad. Sci. 107(29):13075-13080). Thus, CD69 inhibition by selective Btk inhibitors may be correlated with therapeutic efficacy of certain B-cell disorders.
Human blood is obtained from healthy volunteers, with the following restrictions: 1 week drug-free, non-smokers. Blood (approximately 20 mls to test 8 compounds) is collected by venipuncture into Vacutainer® (Becton, Dickinson and Co.) tubes with sodium heparin.
Solutions of Formula I compounds at 10 mM in DMSO are diluted 1:10 in 100% DMSO, then are diluted by three-fold serial dilutions in 100% DMSO for a ten point dose-response curve. The compounds are further diluted 1:10 in PBS and then an aliquot of 5.5 μl of each compound is added in duplicate to a 2 ml 96-well plate; 5.5 μl of 10% DMSO in PBS is added as control and no-stimulus wells. Human whole blood—HWB (100 μl) is added to each well. After mixing the plates are incubated at 37° C., 5% CO2, 100% humidity for 30 minutes. Goat F(ab′)2 anti-human IgM (10 μl of a 500 μg/ml solution, 50 μg/ml final) is added to each well (except the no-stimulus wells) with mixing and the plates are incubated for an additional 20 hours. At the end of the 20 hour incubation, samples are incubated with fluorescent labeled antibodies for 30 minutes, at 37° C., 5% CO2, 100% humidity. Include induced control, unstained and single stains for compensation adjustments and initial voltage settings. Samples are then lysed with PharM Lyse™ (BD Biosciences Pharmingen) according to the manufacturer's instructions. Samples are then transferred to a 96 well plate suitable to be run on the BD Biosciences HTS 96 well system on the LSRII machine. Data acquired and Mean Fluorescence Intensity values were obtained using BD Biosciences DIVA Software. Results are initially analyzed by FACS analysis software (Flow Jo).

[2] = molecular target: T1, full length human wildtype Btk (Homo sapiens, UniProt Q06187); assay: Biochemical Btk Kinase Assay (Example 901); settings: read-out: BTK LC3K (Ki)
T1 construct: V5 (C); 6xHis (C); made in house; host or cells: Sf9 cells (baculovirus, pFastBac)
Method: Formula I compounds were tested by a standard biochemical Btk, Kinase Assay (Example 901). A generalized procedure for a standard biochemical Btk, Kinase Assay that can be used to test Formula I compounds is as follows. A master mix minus Btk enzyme is prepared containing 1× Cell Signaling kinase buffer (25 mM Tris-HCl, pH 7.5, 5 mM beta-glycerophosphate, 2 mM dithiothreitol, 0.1 mM Na3VO4, 10 mM MgCl2), 0.5 μM Promega PTK Biotinylated peptide substrate 2, and 0.01% BSA. A master mix plus Btk enzyme is prepared containing 1× Cell Signaling kinase buffer, 0.5 μM (micromolar) PTK Biotinylated peptide substrate 2, 0.01% BSA, and 100 ng/well (0.06 mU/well) Btk enzyme. Btk enzyme is prepared as follows: full length human wildtype Btk (accession number NM-000061) with a C-terminal V5 and 6×His tag was subcloned into pFastBac® vector (Invitrogen/Life Technologies) for making baculovirus carrying this epitope-tagged Btk. Generation of baculovirus is done based on Invitrogen's instructions detailed in its published protocol “Bac-to-Bac Baculovirus Expression Systems” (Invitrogen/Life Technologies, Cat. Nos. 10359-016 and 10608-016). Passage 3 virus is used to infect Sf9 cells to overexpress the recombinant Btk protein. The Btk protein is then purified to homogeneity using Ni-NTA column. The purity of the final protein preparation is greater than 95% based on the sensitive Sypro-Ruby staining. A solution of 200 μM ATP is prepared in water and adjusted to pH 7.4 with 1N NaOH. A quantity of 1.25 μL (microliter) of compounds in 5% DMSO is transferred to a 96-well 2 area Costar polystyrene plate. Compounds are tested singly and with an 11-point dose-responsive curve (starting concentration is 10 μM; 1:2 dilution). A quantity of 18.75 μL of master mix minus enzyme (as a negative control) and master mix plus enzyme is transferred to appropriate wells in 96-well 2 area costar polystyrene plate. 5 μL of 200 μM ATP is added to that mixture in the 96-well 2 area Costar polystyrene plate for final ATP concentration of 40 μM. The reaction is allowed to incubate for 1 hour at room temperature. The reaction is stopped with Perkin Elmer 1× detection buffer containing 30 mM EDTA, 20 nM SA-APC, and 1 nM PT66 Ab. The plate is read using time-resolved fluorescence with a Perkin Elmer Envision using excitation filter 330 nm, emission filter 665 nm, and 2nd emission filter 615 nm. IC50 values are subsequently calculated. Alternatively, the Lanthascreen assay can be used to evaluate Btk activity through quantification of its phosphorylated peptide product. The FRET (Fluorescence Resonance Energy Transfer) that occurs between the fluorescein on the peptide product and the terbium on the detection antibody decreases with the addition of inhibitors of Btk that reduce the phosphorylation of the peptide. In a final reaction volume of 25 μL (microliters), Btk (h) (0.1 ng/25 μl reaction) is incubated with 50 mM Hepes pH 7.5, 10 mM MgCl2, 2 mM MnCl2, 2 mM DTT, 0.2 mM NaVO4, 0.01% BSA, and 0.4 uM fluorescein poly-GAT. The reaction is initiated by the addition of ATP to 25 μM (micromolar) the Km of ATP. After incubation for 60 minutes at room temperature, the reaction is stopped by the addition of a final concentration of 2 nM Tb-PY20 detection antibody in 60 mM EDTA for 30 minutes at room temperature. Detection is determined on a Perkin Elmer Envision with 340 nm excitation and emission at 495 nm and 520 nm. Exemplary Btk inhibition […] values are in Table 1.

T1 sequence (Q06187 whole entry): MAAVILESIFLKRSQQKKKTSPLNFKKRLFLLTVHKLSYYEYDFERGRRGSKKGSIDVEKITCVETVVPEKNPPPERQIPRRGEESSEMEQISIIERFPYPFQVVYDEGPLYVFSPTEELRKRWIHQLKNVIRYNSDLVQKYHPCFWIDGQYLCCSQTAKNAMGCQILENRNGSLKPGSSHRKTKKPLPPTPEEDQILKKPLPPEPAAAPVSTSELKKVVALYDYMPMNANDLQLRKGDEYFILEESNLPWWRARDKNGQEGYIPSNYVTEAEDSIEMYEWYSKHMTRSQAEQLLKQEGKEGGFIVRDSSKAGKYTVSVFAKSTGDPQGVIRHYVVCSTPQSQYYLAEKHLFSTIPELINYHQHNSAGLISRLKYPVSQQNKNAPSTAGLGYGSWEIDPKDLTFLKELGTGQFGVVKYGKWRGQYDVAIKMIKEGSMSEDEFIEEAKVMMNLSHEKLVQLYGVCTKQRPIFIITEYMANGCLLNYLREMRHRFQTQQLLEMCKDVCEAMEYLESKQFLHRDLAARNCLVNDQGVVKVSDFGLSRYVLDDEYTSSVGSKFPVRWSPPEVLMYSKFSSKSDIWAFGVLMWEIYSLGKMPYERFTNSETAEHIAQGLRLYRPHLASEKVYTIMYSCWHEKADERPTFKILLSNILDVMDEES

Row | SMILES | Ki [2] [nM] | IC70 [1] [nM]
1 | CC(C)(C)c1cc(F)c2c(=O)n(-c3nccc(-n4cc(C(N)=O)c(-c5cnn(C(F)F)c5)n4)c3CO)ncc2c1 [Example 121, 1-[2-(6-tert-butyl-8-fluoro-1-oxo-phthalazin-2-yl)-3-(hydroxymethyl)-4-pyridyl]-3-[1-(difluoromethyl)pyrazol-4-yl]pyrazole-4-carboxamide] | 1.15 | 1400
2 | C[C@H]1CN(C2COC2)CCN1c1ccc(Nc2nn(-c3ccnc(-n4ncc5cc(C(C)(C)C)cc(F)c5c4=O)c3CO)cc2C(N)=O)nc1 [Example 120, 1-[2-(6-tert-butyl-8-fluoro-1-oxo-phthalazin-2-yl)-3-(hydroxymethyl)-4-pyridyl]-3-[[5-[(2S)-2-methyl-4-(oxetan-3-yl)piperazin-1-yl]-2-pyridyl]amino]pyrazole-4-carboxamide] | 0.106 | 98.6
3 | CC1(C)Cc2cc3n(c2C1)CCN(c1nccc(-n2cc(C(N)=O)c(Nc4ccccn4)n2)c1CO)C3=O [Example 103, 1-[2-(7,7-dimethyl-4-oxo-1,2,6,8-tetrahydrocyclopenta[3,4]pyrrole[3,5-b]pyrazin-3-yl)-3-(hydroxymethyl)-4-pyridyl]-3-(2-pyridylamino)pyrazole-4-carboxamide] | 0.565 | 127
4 | CC(C)(C)c1cc(F)c2c(=O)n(-c3nccc(-n4cc(C(N)=O)c(-c5cnc6ccccc6c5)n4)c3CO)ncc2c1 [Example 140, 1-[2-(6-tert-butyl-8-fluoro-1-oxo-phthalazin-2-yl)-3-(hydroxymethyl)-4-pyridyl]-3-(3-quinolyl)pyrazole-4-carboxamide] | > 500 | –
5 | CC(C)(C)c1cc(F)c2c(=O)n(-c3nccc(-n4cc(C(N)=O)c(-c5cccnc5)n4)c3CO)ncc2c1 [Example 144, 1-[2-(6-tert-butyl-8-fluoro-1-oxo-phthalazin-2-yl)-3-(hydroxymethyl)-4-pyridyl]-3-(3-pyridyl)pyrazole-4-carboxamide] | 124 | –
6 | CC(C)(C)c1cc(F)c2c(=O)n(-c3nccc(-n4cc(C(N)=O)c(-c5ccccc5)n4)c3CO)ncc2c1 [Example 114, 1-[2-(6-tert-butyl-8-fluoro-1-oxo-phthalazin-2-yl)-3-(hydroxymethyl)-4-pyridyl]-3-phenyl-pyrazole-4-carboxamide] | 184 | –
7 | CC(C)(C)c1cc(F)c2c(=O)n(-c3nccc(-n4cc(C(N)=O)c(-c5cncc(S(C)(=O)=O)c5)n4)c3CO)ncc2c1 [Example 139, 1-[2-(6-tert-butyl-8-fluoro-1-oxo-phthalazin-2-yl)-3-(hydroxymethyl)-4-pyridyl]-3-(5-methylsulfonyl-3-pyridyl)pyrazole-4-carboxamide] | > 500 | –

The remaining molecules from weak to strong by Ki [2], led by results:

Row | Ki [2] [nM] | SMILES | IC70 [1] [nM]
8 | 156 | CC(C)(C)c1cc(F)c2c(=O)n(-c3nccc(-n4cc(C(N)=O)c(-c5ccc(CN)cc5)n4)c3CO)ncc2c1 [Example 133, 3-[4-(aminomethyl)phenyl]-1-[2-(6-tert-butyl-8-fluoro-1-oxo-phthalazin-2-yl)-3-(hydroxymethyl)-4-pyridyl]pyrazole-4-carboxamide] | –
9 | 143 | CN1CCN(C(=O)c2ccc(-c3nn(-c4ccnc(-n5ncc6cc(C(C)(C)C)cc(F)c6c5=O)c4CO)cc3C(N)=O)cc2)CC1 [Example 131, 1-[2-(6-tert-butyl-8-fluoro-1-oxo-phthalazin-2-yl)-3-(hydroxymethyl)-4-pyridyl]-3-[4-(4-methylpiperazine-1-carbonyl)phenyl]pyrazole-4-carboxamide] | –
10 | 104 | CC(C)(C)c1cc(F)c2c(=O)n(-c3nccc(-n4cc(C(N)=O)c(-c5cnc(N)cn5)n4)c3CO)ncc2c1 [Example 129, 3-(5-aminopyrazin-2-yl)-1-[2-(6-tert-butyl-8-fluoro-1-oxo-phthalazin-2-yl)-3-(hydroxymethyl)-4-pyridyl]pyrazole-4-carboxamide] | –
11 | 100 | CC(C)(C)c1cc(F)c2c(=O)n(-c3nccc(-n4cc(C(N)=O)c(-c5ccncc5)n4)c3CO)ncc2c1 [Example 143, 1-[2-(6-tert-butyl-8-fluoro-1-oxo-phthalazin-2-yl)-3-(hydroxymethyl)-4-pyridyl]-3-(4-pyridyl)pyrazole-4-carboxamide] | –
12 | 32.1 | CCC(=O)Nc1nn(-c2ccnc(N3CCn4c(cc5c4CC(C)(C)C5)C3=O)c2CO)cc1C(N)=O [Example 123, 1-[2-(7,7-dimethyl-4-oxo-1,2,6,8-tetrahydrocyclopenta[3,4]pyrrolo[3,5-b]pyrazin-3-yl)-3-(hydroxymethyl)-4-pyridyl]-3-(propanoylamino)pyrazole-4-carboxamide] | 685
13 | 13.8 | CC(=O)Nc1nn(-c2ccnc(N3CCn4c(cc5c4CC(C)(C)C5)C3=O)c2CO)cc1C(N)=O [Example 124, 3-acetamido-1-[2-(7,7-dimethyl-4-oxo-1,2,6,8-tetrahydrocyclopenta[3,4]pyrrolo[3,5-b]pyrazin-3-yl)-3-(hydroxymethyl)-4-pyridyl]pyrazole-4-carboxamide] | –
14 | 0.296 | C[C@H]1CN(C2COC2)CCN1c1ccc(Nc2nn(-c3ccnc(N4CCn5c(cc6c5CC(C)(C)C6)C4=O)c3CO)cc2C(N)=O)nc1 [Example 125, 1-[2-(7,7-dimethyl-4-oxo-1,2,6,8-tetrahydrocyclopenta[3,4]pyrrolo[3,5-b]pyrazin-3-yl)-3-(hydroxymethyl)-4-pyridyl]-3-[[5-[(2S)-2-methyl-4-(oxetan-3-yl)piperazin-1-yl]-2-pyridyl]amino]pyrazole-4-carboxamide] | –
